Where a name gives a salt, the structure may show the parent alone.
Key:
BIDPI [1] = experiment: Greenhouse test, pre-emergence herbicidal action; type: in vivo, hairy beggarticks
From the text: (§1) For the pre-emergence treatment, the test plants were sown is pots 1-2 days later, i.e. prior to germination, the pots were sprayed with the finely distributed herbicidal compositions, which had been suspended in water.
(§2) The respective components A and B and/or C were formulated as 10% by weight strength emulsion concentrate and introduced to the spray liquor with the amount of solvent system used for applying the active compound. In the examples, the solvent used was water.
(§3) The test period extended over 21 days. During this time, the plants were tended, and their response to the treatments with active compound was evaluated.
(§4) The evaluation for the damage caused by the chemical compositions was carried out using a scale from 0 to 100%, compared to the untreated control plants. Here, 0 means no damage and 100 means complete destruction of the plants.
(§5) In the examples below, the value E which is to be expected if the activity of the individual active compounds is just additive was calculated using the method of S. R. Colby (1967) “Calculating synergistic and antagonistic responses of herbicide combinations”, Weeds 15, p. 22 ff. E=X+Y—(X·Y/100) where • X=effect in percent using active compound A at an application rate a; • Y=effect in percent using active compound B at an application rate b; • E=expected effect (in %) of A+B at application rates a+b.
(§6) The plants used in the greenhouse experiments were of the following species: […]

ABUTH [2] = experiment: Greenhouse test, pre-emergence herbicidal action; type: in vivo, velvet leaf
From the text: as §1, §2, §3, §4, §5, §6

crop plants = experiment: Safener action, pre-emergence, damage to crop plants; type: in vivo; conditions: 21 days, application rate 100 g/ha
From the text: as §1, §2, §4
As in the example above, test plants were grown, treated with the mixture according to the invention by the Pre-emergence method and, after a test period of 21 days, evaluated using a scale from 0 to 100% damage. The test plants used were crop plants.
A safener action is present if the damage to the crop plant caused by using a mixture according to the invention which comprises a safener C) is less than the damage caused when active compound A or active compounds A and B are used without safener.

POAAN = experiment: Greenhouse test, post-emergence herbicidal action; type: in vivo, annual bluegrass; conditions: application rate 250 g/ha
From the text: (§7) For the post-emergence treatment, the test plants were first grown to a height of 3 to 20 cm, depending on the plant habit, and only then treated. Here, the herbicidal compositions were suspended or emulsified in water as distribution medium and sprayed using finely distributing nozzles.
as §2, §3, §4, §5, §6

VERSS = experiment: Greenhouse test, post-emergence herbicidal action; type: in vivo, speadwell; conditions: application rate 250 g/ha
From the text: as §7, §2, §3, §4, §5, §6

MATIN = experiment: Greenhouse test, post-emergence herbicidal action; type: in vivo, false chamomille; conditions: application rate 250 g/ha
From the text: as §7, §2, §3, §4, §5, §6

ECHCG = experiment: Greenhouse test, post-emergence herbicidal action; type: in vivo, barnyardgrass
From the text: as §7, §2, §3, §4, §5, §6

COMBE = experiment: Greenhouse test, post-emergence herbicidal action; type: in vivo, tropical spiderwort; conditions: 21 days
From the text: as §7, §2, §3, §4, §5, §6

POLPE = experiment: Greenhouse test, post-emergence herbicidal action; type: in vivo, ladysthumb
From the text: as §7, §2, §3, §4, §5, §6

BIDPI [3] = experiment: Greenhouse test, post-emergence herbicidal action; type: in vivo, hairy beggarticks
From the text: as §7, §2, §3, §4, §5, §6

THLAR = experiment: Greenhouse test, pre-emergence herbicidal action; type: in vivo, fanweed; conditions: application rate 250 g/ha
From the text: as §1, §2, §3, §4, §5, §6

AVEFA = experiment: Greenhouse test, post-emergence herbicidal action; type: in vivo, wild oat
From the text: as §7, §2, §3, §4, §5, §6

ABUTH [4] = experiment: Greenhouse test, post-emergence herbicidal action; type: in vivo, velvet leaf; conditions: 21 days
From the text: as §7, §2, §3, §4, §5, §6

GALAP = experiment: Greenhouse test, post-emergence herbicidal action; type: in vivo, catchweed bedstraw
From the text: as §7, §2, §3, §4, §5, §6

BRAPL = experiment: Greenhouse test, post-emergence herbicidal action; type: in vivo, alexandergrass
From the text: as §7, §2, §3, §4, §5, §6

[5] = application rate 62.5 g/ha, 21 days
[6] = application rate 125 g/ha, 21 days
[7] = application rate 15.63 g/ha, 21 days
[8] = application rate 31.25 g/ha, 21 days
[9] = application rate 0.49 g/ha (Example 32)
[10] = application rate 0.98 g/ha (Example 32)
[11] = application rate 3.91 g/ha (Example 26)

Question: What does the source list for `C/C(=N\NC(=O)Nc1cc(F)cc(F)c1)c1ncccc1C(=O)O` [diflufenzopyr sodium salt]?
Answer: Herbicidal action against BIDPI, Found (BIDPI [1]; application rate 62.5 g/ha): 40%; Herbicidal action against BIDPI, Found (BIDPI [1]; application rate 125 g/ha): 70%; Herbicidal action against ABUTH, Found (ABUTH [2]; application rate 62.5 g/ha): 10%; Herbicidal action against ABUTH, Found (ABUTH [2]; application rate 125 g/ha): 30%

Question: What does the source list for `C=CCN(CC=C)C(=O)C(Cl)Cl` [dichlormid]?
Answer: Damage to the crop plant corn (ZEAMX), cultivar Magister (crop plants): 13%; Damage to the crop plant corn (ZEAMX), cultivar P3751 (crop plants): 0%

Question: How did the “Herbicidal action against POAAN, Found” value (POAAN) turn out when `CC(C)N(C(=O)COc1nnc(C(F)(F)F)s1)c1ccc(F)cc1` [flufenacet] was run?
Answer: Its value is 0%.

Question: And the “Herbicidal action against VERSS, Found” value (VERSS)?
Answer: The value was 0%.

Question: What about the “Herbicidal action against MATIN, Found” value (MATIN) of the same compound?
Answer: The value was 10%.

Question: For `CCNc1nc(Cl)nc(NC(C)C)n1` [atrazine, reference compound], which “Herbicidal action against ECHCG, Found” value (ECHCG; [5]) is on record?
Answer: The value was 45%.

Question: What about the “Herbicidal action against ECHCG, Found” value (ECHCG; [6]) of the same compound?
Answer: Its value is 65%.

Question: With `CCc1cnc(C2=NC(C)(C(C)C)C(=O)N2)c(C(=O)O)c1` (stereo not shown) [imazethapyr, reference compound] as the compound, how does the “Herbicidal action against COMBE, Found” value (COMBE; application rate 15.63 g/ha) read?
Answer: Its value is 20%.

Question: What about the “Herbicidal action against COMBE, Found” value (COMBE; application rate 31.25 g/ha) of the same compound?
Answer: The value was 40%.

Question: And the “Herbicidal action against POLPE, Found” value (POLPE; [7])?
Answer: The value was 40%.

Question: What about the “Herbicidal action against POLPE, Found” value (POLPE; [8]) of the same compound?
Answer: Its value is 60%.

Question: `COCc1cnc(C2=NC(C)(C(C)C)C(=O)N2)c(C(=O)O)c1` (stereo not shown) [imazamox, reference compound] was tested. Which “Herbicidal action against BIDPI, Found” value (BIDPI [3]; [8]) did it give?
Answer: The value was 20%.

Question: And the “Herbicidal action against BIDPI, Found” value (BIDPI [3]; [5])?
Answer: The value was 60%.

Question: With `CCC(CC)Nc1c([N+](=O)[O-])cc(C)c(C)c1[N+](=O)[O-]` [pendimethalin] as the compound, how does the “Herbicidal action against THLAR, Found” value (THLAR) read?
Answer: Its value is 40%.

Question: Which results are given for `C[n+]1ccc(-c2cc[n+](C)cc2)cc1` [paraquat]?
Answer: Herbicidal action against AVEFA, Found (AVEFA; application rate 62.5 g/ha): 70%; Herbicidal action against AVEFA, Found (AVEFA; application rate 125 g/ha): 80%

Question: What does the source list for `CC(C)N1C(=O)c2ccccc2NS1(=O)=O` [bentazone sodium salt, reference compound]?
Answer: Herbicidal action against POLPE, Found (POLPE; [6]): 15%; Herbicidal action against POLPE, Found (POLPE; application rate 250 g/ha, 21 days): 25%; Herbicidal action against ABUTH, Found (ABUTH [4]; application rate 125 g/ha): 0%; Herbicidal action against ABUTH, Found (ABUTH [4]; application rate 250 g/ha): 20%

Question: For `CCCc1nc2c(Cl)cc(F)c(-c3nn(C)c(OC(F)F)c3Br)c2o1` [I.15], which “Herbicidal action against GALAP, Found” value (GALAP; application rate 0.49 g/ha (Example 29)) is on record?
Answer: The value was 40%.

Question: And the “Herbicidal action against GALAP, Found” value (GALAP; application rate 0.49 g/ha (Example 30))?
Answer: The value was 40%.

Question: What about the “Herbicidal action against GALAP, Found” value (GALAP; [9]) of the same compound?
Answer: The value was 40%.

Question: And the “Herbicidal action against GALAP, Found” value (GALAP; application rate 0.98 g/ha (Example 29))?
Answer: The value was 70%.

Question: What about the “Herbicidal action against GALAP, Found” value (GALAP; application rate 0.98 g/ha (Example 30)) of the same compound?
Answer: The value was 70%.

Question: What about the “Herbicidal action against GALAP, Found” value (GALAP; [10]) of the same compound?
Answer: Its value is 70%.

Question: And the “Herbicidal action against ECHCG, Found” value (ECHCG; [9])?
Answer: Its value is 30%.

Question: And the “Herbicidal action against ECHCG, Found” value (ECHCG; [10])?
Answer: Its value is 40%.

Question: And the “Herbicidal action against BIDPI, Found” value (BIDPI [3]; application rate 0.49 g/ha)?
Answer: The value was 30%.

Question: And the “Herbicidal action against BIDPI, Found” value (BIDPI [3]; application rate 0.98 g/ha)?
Answer: Its value is 40%.

Question: And the “Herbicidal action against BRAPL, Found” value (BRAPL; application rate 0.49 g/ha)?
Answer: The value was 30%.

Question: What about the “Herbicidal action against BRAPL, Found” value (BRAPL; application rate 0.98 g/ha) of the same compound?
Answer: Its value is 75%.

Question: Which results are given for `CC(C)c1nc2c(Cl)cc(Cl)c(-c3nn(C)c(OC(F)F)c3Cl)c2o1` [I.18]?
Answer: Herbicidal action against BIDPI, Found (BIDPI [3]; application rate 1.95 g/ha (Example 26)): 60%; Herbicidal action against BIDPI, Found (BIDPI [3]; application rate 1.95 g/ha (Example 27)): 60%; Herbicidal action against BIDPI, Found (BIDPI [3]; [11]): 60%; Herbicidal action against BIDPI, Found (BIDPI [3]; application rate 3.91 g/ha (Example 27)): 60%

Question: Which “Herbicidal action against POLPE, Found” value (POLPE; application rate 125 g/ha) does the source give for `CC1(C)CON(Cc2ccccc2Cl)C1=O` [clomazone] here?
Answer: The value was 75%.

Question: What about the “Herbicidal action against POLPE, Found” value (POLPE; application rate 250 g/ha) of the same compound?
Answer: The value was 75%.

Question: For `COc1cc(OC)nc(NC(=O)NS(=O)(=O)c2ncccc2C(=O)N(C)C)n1` [nicosulfuron], which “Herbicidal action against BIDPI, Found” value (BIDPI [3]; [11]) is on record?
Answer: Its value is 70%.

Question: What about the “Herbicidal action against BIDPI, Found” value (BIDPI [3]; application rate 7.81 g/ha (Example 26)) of the same compound?
Answer: Its value is 80%.

Question: With `CCCC(=NOCC(C)Oc1ccc(Cl)cc1)C1=C(O)CC(C2CCCSC2)CC1=O` (stereo not shown) [profoxydim, reference compound] as the compound, how does the “Herbicidal action against GALAP, Found” value (GALAP; application rate 7.81 g/ha, 21 days) read?
Answer: Its value is 30%.

Question: And the “Herbicidal action against GALAP, Found” value (GALAP; [7])?
Answer: The value was 30%.
